Experiment [1] has as its target DNA topoisomerase 2-alpha (Rattus norvegicus) (UniProt P41516). In words: Inhibition of rat brain topoisomerase 2 assessed as relaxation of supercoiled pBR322 DNA.
A further experiment concerns COLO 205. In words: Cytotoxicity against human COLO205 assessed as inhibition of cell growth. The experiment is classed as functional, cell-based.
Experiment [2] can be described thus: Cytotoxicity against human DWD assessed as inhibition of cell growth. Format: functional.
A further experiment has as its system HOP-62. The experiment is described as follows: Cytotoxicity against human HOP62 assessed as inhibition of cell growth. The experiment is classed as functional, cell-based.
The next experiment has as its system HT-1080. In words: Cytotoxicity against human HT1080 assessed as inhibition of cell growth. The experiment is classed as functional, cell-based.

Structures can show the parent of a compound that is named as a salt. Activity calls are given as the source filed them. The calls are words filed in the database; no cut-off is given here.

Chain of DNA topoisomerase 2-alpha (Rattus norvegicus) (P41516 whole entry): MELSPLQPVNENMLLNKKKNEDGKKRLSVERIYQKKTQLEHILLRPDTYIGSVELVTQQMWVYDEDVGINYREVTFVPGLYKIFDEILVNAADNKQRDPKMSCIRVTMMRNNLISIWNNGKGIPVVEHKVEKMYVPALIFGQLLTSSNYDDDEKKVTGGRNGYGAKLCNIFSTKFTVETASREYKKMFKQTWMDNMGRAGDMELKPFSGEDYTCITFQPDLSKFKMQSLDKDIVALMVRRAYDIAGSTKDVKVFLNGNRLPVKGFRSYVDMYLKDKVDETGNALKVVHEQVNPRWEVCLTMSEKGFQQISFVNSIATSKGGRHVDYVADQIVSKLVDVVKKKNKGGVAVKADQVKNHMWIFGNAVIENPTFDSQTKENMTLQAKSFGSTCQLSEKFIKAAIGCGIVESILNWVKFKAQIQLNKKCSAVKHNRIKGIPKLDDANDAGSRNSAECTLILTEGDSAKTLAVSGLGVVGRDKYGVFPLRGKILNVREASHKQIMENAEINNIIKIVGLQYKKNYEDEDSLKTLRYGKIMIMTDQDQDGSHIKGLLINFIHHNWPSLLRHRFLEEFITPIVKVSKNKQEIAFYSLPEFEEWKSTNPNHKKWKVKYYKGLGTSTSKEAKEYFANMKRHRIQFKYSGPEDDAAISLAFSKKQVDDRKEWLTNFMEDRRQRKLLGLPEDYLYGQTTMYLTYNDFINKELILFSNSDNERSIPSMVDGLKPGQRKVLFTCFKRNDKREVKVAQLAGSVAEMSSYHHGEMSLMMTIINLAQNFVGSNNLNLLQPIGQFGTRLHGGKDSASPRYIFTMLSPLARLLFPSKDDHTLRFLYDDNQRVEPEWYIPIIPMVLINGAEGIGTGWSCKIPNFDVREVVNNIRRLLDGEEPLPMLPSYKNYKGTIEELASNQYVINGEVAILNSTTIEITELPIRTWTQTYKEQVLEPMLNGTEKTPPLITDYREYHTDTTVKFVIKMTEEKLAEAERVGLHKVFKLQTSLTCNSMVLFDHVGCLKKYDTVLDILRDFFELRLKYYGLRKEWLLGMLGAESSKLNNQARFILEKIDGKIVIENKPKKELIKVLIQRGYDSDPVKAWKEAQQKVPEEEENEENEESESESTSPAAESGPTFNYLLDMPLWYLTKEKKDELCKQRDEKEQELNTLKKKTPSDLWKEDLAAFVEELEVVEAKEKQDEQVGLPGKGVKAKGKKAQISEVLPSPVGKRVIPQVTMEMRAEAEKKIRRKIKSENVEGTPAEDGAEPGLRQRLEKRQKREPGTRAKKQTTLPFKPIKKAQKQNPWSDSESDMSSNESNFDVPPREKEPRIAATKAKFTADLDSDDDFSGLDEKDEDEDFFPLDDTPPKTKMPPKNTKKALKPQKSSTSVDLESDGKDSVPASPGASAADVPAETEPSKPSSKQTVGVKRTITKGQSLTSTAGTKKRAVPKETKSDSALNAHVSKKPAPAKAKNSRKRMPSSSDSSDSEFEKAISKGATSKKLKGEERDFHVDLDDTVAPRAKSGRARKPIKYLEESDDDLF

With `COc1cc([C@@H]2c3cc4c(cc3[C@@H](Nc3ccc(-c5nc6ccccc6s5)cc3Br)[C@H]3COC(=O)[C@H]23)OCO4)cc(OC)c1O`, the inhibition entry in experiment [1] was “Active”.
Consider `COc1ccc2nc(-c3ccc(N[C@@H]4c5cc6c(cc5[C@@H](c5cc(OC)c(O)c(OC)c5)[C@H]5C(=O)OC[C@@H]54)OCO6)cc3)sc2c1`, for which the inhibition result in experiment [1] is “Active”.
`COc1cc([C@@H]2c3cc4c(cc3[C@@H](Nc3ccc(-c5nc6ccccc6s5)c(Cl)c3)[C@H]3COC(=O)[C@H]23)OCO4)cc(OC)c1O`: the IC50 – broadly, the concentration that gives 50% inhibition – in the experiment on COLO 205 was 8.3 µM; in experiment [2], 6.5 µM; with HOP-62, 8.6 µM; in the experiment on HT-1080 it was > 80 µM.
In the same order, the values of `COc1cc([C@@H]2c3cc4c(cc3[C@@H](Nc3ccc(-c5nc6c(Cl)cccc6s5)cc3)[C@H]3COC(=O)[C@H]23)OCO4)cc(OC)c1OC` are 7.1 µM, 7.3 µM, 60.3 µM and 9.1 µM.
Turning to `COc1cc([C@@H]2c3cc4c(cc3[C@H](O)[C@H]3COC(=O)[C@H]23)OCO4)cc(OC)c1OC` [PODOFILOX], the IC50 in the experiment on COLO 205 was determined as 5 µM; in experiment [2] it was 6.1 µM; in the experiment with HOP-62, 13.1 µM; in the experiment with HT-1080 it was 8.1 µM.
Take `COc1cc([C@@H]2c3cc4c(cc3[C@@H](Nc3ccc(-c5nc6ccccc6s5)cc3)[C@H]3COC(=O)[C@H]23)OCO4)cc(OC)c1O`: in experiment [1], the inhibition entry was “Active”. Moreover, the IC50 came out at 2.7 µM in the experiment with COLO 205, 2.3 µM in experiment [2], 30.1 µM in the experiment with HOP-62 and 9.7 µM in the experiment with HT-1080.
For `COc1ccc2nc(-c3ccc(N[C@@H]4c5cc6c(cc5[C@@H](c5cc(OC)c(OC)c(OC)c5)[C@H]5C(=O)OC[C@@H]54)OCO6)cc3)sc2c1`, the IC50 was determined as 7 µM with COLO 205, 5.2 µM in experiment [2], 15.2 µM in the experiment on HOP-62 and 9.5 µM in the experiment on HT-1080.
In the same order, the values of `COc1cc([C@@H]2c3cc4c(cc3[C@@H](Nc3ccc(-c5nc6c(Cl)cccc6s5)cc3)[C@H]3COC(=O)[C@H]23)OCO4)cc(OC)c1O` are 8.3 µM, 9.1 µM, 10.1 µM and > 80 µM.
As for `COc1cccc2c1C(=O)c1c(O)c3c(c(O)c1C2=O)C[C@@](O)(C(=O)CO)C[C@@H]3O[C@H]1C[C@H](N)[C@H](O)[C@H](C)O1` [DOXORUBICIN HYDROCHLORIDE], the IC50 in the experiment with COLO 205 came to 5.1 µM; in experiment [2], 2.8 µM; in the experiment on HOP-62, 5.4 µM; with HT-1080, 4.7 µM.
`COc1cc([C@@H]2c3cc4c(cc3[C@@H](Nc3ccc(-c5nc6ccccc6s5)cc3)[C@H]3COC(=O)[C@H]23)OCO4)cc(OC)c1OC`: the inhibition result in experiment [1] is “Active”. In addition, the IC50 with COLO 205 is 8.1 µM; in experiment [2], 22 µM; in the experiment with HOP-62, > 80 µM; in the experiment on HT-1080 it was 8.2 µM.
